Assay results reported in patent publication US4775675A, “Thiazolidinecarboxylic acid derivatives and treatment of liver diseases therewith” (Biogal Gyogyszergyar, priority 1985, dated 1988).
Counter-ions that a name gives are not always drawn.

What was measured:
[1] = acute toxicity investigation (LD50); conditions: mouse, in vivo, mice
Description: The compounds prepared were subjected to acute toxicity investigations. For this purpose, the compounds under test were dissolved in an aqueous sodium carbonate solution and administered intraperitoneally (i.p.) or intravenously (i.v.) to the animals (40 days old CFLP female mice).
Some characteristic LD50 values of the compounds of the invention are as follows: […]

CFY male rats [2] = experiment: liver protecting effect: carbon tetrachloride intoxication followed by treatment with the compounds under test; assay type: in vivo, rat (CFY male); conditions: CCl4 1.5 g/kg orally, compound 100 mg/kg i.p. after 6 hours; for TG (triglyceride content of the liver): control 40 ± 8, CCl4 alone 86 ± 17; for SGOT activity: control 81.7 ± 16, CCl4 alone 269.0 ± 14
Description: (§1) In order to investigate the liver protecting effect, the compounds were tested at CFY male rats with 200 to 240 g of body-weight after a starvation for 18 hours.
(§2) An experimental liver damage was elicited by using carbon tetrachloride, allyl alcohol or galactosamine. The activity of the serum glutamate-oxalacetate-transaminase (SGOT), the triglyceride (TG) content of the liver as well as the histological picture of the liver were studied.
(§3) Liver damaging agents (1.5 g/kg of body-weight of carbon tetrachloride orally; 0.75 g/kg of body-weight of galactosamine intraperitoneally) were administered to the starved animals, whereupon the animals received the compound under test in a dose of 100 mg/kg of body-weight intraperitoneally after 6 hours.
(a) The results of the carbon tetrachloride intoxication followed by treatment with the compounds under test are as follows: […]

CFY male rats [3] = experiment: liver protecting effect: galactosamine damage followed by treatment with the compounds under test (histology); assay type: in vivo, rat (CFY male); conditions: galactosamine 0.75 g/kg i.p., compound i.p. 6 hours later
CFY male rats [4] = experiment: liver protecting effect: allyl alcohol intoxication followed by treatment with the compounds under test; assay type: in vivo, rat (CFY male); conditions: compound 100 mg/kg of body-weight, after 24 hours, before 1.81±0.43, allyl alcohol 4.16±1.63
Description: as §1, §2, §3
(b) The results of the allyl alcohol intoxication followed by treatment with the compounds under test are as follows:
After 24 hours, the animals were killed and the activity of the serum glutamate-pyruvate-transaminase (SGPT) was determined. After a treatment with allyl alcohol, the SGPT level was increased from a value of 1.81±0.43 μmoles/ml.h. to 4.16±1.63 μmoles/ml. h. This increase was diminished to 2.84±0.97 μmoles/ml.h. by a treatment with a 100 mg/kg of body-weight dose of the compound described in Example 1.

Row | SMILES | TG (triglyceride content of the liver) (CFY male rats [2]) [µg/mg protein] | SGOT activity (CFY male rats [2]) [unit/liter] | further results
1 | CC1(C)SC(CO)N[C@H]1C(=O)O (stereo partly drawn) [Example 14, 5,5-Dimethyl-2-hydroxymethylthiazolidine-4(S)-carboxylic acid] | – | – | LD50 ([1]; ip): 5000 mg/kg
2 | CC1(C)SC(c2ccco2)N[C@H]1C(=O)O (stereo partly drawn) [Example 2, 5,5-Dimethyl-2-(2-furyl)-thiazolidine-4(S)-carboxylic acid] | 84 ± 6 | 229.0 ± 14 | number of focally appearing parenchymal necroses (CFY male rats [3]): diminished; severity of the alterations characteristic of the galactosamine hepatitis (CFY male rats [3]): diminished
3 | CC1(C)SC(c2ccc(F)cc2)N[C@H]1C(=O)[O-].[K+] (stereo partly drawn) [Example 10, 5,5-Dimethyl-2-(4-fluorophenyl)-thiazolidine-4(S)-carboxylic acid and potassium salt] | 81 ± 11 | 227.0 ± 40 | –
4 | CC(=O)N1[C@@H](c2ccc(Cl)cc2)SC(C)(C)[C@@H]1C(=O)O [Example 22, 3-Acetyl-2(R)-(4-chlorophenyl)-5,5-dimethylthiazolidine-4(S)-carboxylic acid] | – | – | LD50 ([1]; ip): 550 mg/kg
5 | Cn1cccc1C1N[C@@H](C(=O)O)C(C)(C)S1 (stereo partly drawn) [Example 4, 5,5-Dimethyl-2-(N-methyl-2-pyrrolyl)thiazolidine-4(S)-carboxylic acid] | 114 ± 24 | 241.0 ± 21 | –
6 | CSc1ccc(C2N[C@@H](C(=O)O)C(C)(C)S2)cc1 (stereo partly drawn) [Example 11, 5,5-Dimethyl-2-(4-methylmercaptophenyl)-thiazolidine-4(S)-carboxylic acid] | 70 ± 14 | 235.0 ± 19 | –
7 | CC(=O)N1[C@@H](C(=O)O)C(C)(C)S[C@H]1c1ccccc1 [Example 27, 3-Acetyl-5,5-dimethyl-2(S)-phenylthiazolidine-4(S)-carboxylic acid] | – | – | LD50 ([1]; ip): 1500 mg/kg
8 | CC1(C)SC(c2cc3ccccc3o2)N[C@H]1C(=O)O (stereo partly drawn) [Example 7, 2-(2-Benzofuryl)-5,5-dimethylthiazolidine-4(S)-carboxylic acid] | 61 ± 13 | 224.0 ± 14 | –
9 | CC1(C)SC(c2ccc3c(c2)CCC3)N[C@H]1C(=O)O (stereo partly drawn) [Example 8, 5,5-Dimethyl-2-(5-indanyl)-thiazolidine-4(S)-carboxylic acid] | 76 ± 10 | 234.0 ± 23 | –
10 | CC1(C)SC(c2ccncc2)N[C@H]1C(=O)O (stereo partly drawn) [Example 6, 5,5-Dimethyl-2-(4-pyridyl)-thiazolidine-4(S)-carboxylic acid] | 88 ± 20 | 250.0 ± 13 | –
11 | CC1(C)SC(c2ccc([N+](=O)[O-])o2)N[C@H]1C(=O)O (stereo partly drawn) [Example 1, 5,5-Dimethyl-2-(5-nitro-2-furyl)-thiazolidine-4(S)-carboxylic acid] | 51 ± 15 | 224.0 ± 14 | LD50 ([1]; iv): 2190 mg/kg; SGPT level (activity of the serum glutamate-pyruvate-transaminase) (CFY male rats [4]): 2.84 ± 0.97 µmol/mL/h; number of focally appearing parenchymal necroses (CFY male rats [3]): diminished; severity of the alterations characteristic of the galactosamine hepatitis (CFY male rats [3]): diminished
12 | CC1(C)SC(c2cccc([N+](=O)[O-])c2)N[C@H]1C(=O)O (stereo partly drawn) [Example 9, 5,5-Dimethyl-2-(3-nitrophenyl)-thiazolidine-4(S)-carboxylic acid magnesium salt] | 83 ± 19 | 232.0 ± 34 | –
13 | Oc1cc(O)c2c(c1)O[C@H](c1ccc(O)c(O)c1)[C@@H](O)C2 [catergen, (+)2-(3,4-dihydroxyphenyl)-3,5,7-chromanetriol, reference compound] | 77 ± 7 | 241.0 ± 23 | –
14 | CC(=O)N1[C@@H](C(=O)O)C(C)(C)S[C@H]1c1ccc([N+](=O)[O-])o1 [Example 30, 3-Acetyl-5,5-dimethyl-2(S)-(5-nitro-2-furyl)-thiazolidine-4(S)-carboxylic acid] | – | – | LD50 ([1]; ip): 2500 mg/kg
15 | CC1(C)SC(c2cccnc2)N[C@H]1C(=O)O (stereo partly drawn) [Example 5, 5,5-Dimethyl-2-(3-pyridyl)-thiazolidine-4(S)-carboxylic acid] | 61 ± 14 | 243.0 ± 21 | –
